Target: human serum albumin (HSA) (Homo sapiens, UniProt P02768)
Test: fluorescent probe displaced from HSA by GdLx
Assay type: binding

Sequence of human serum albumin (HSA) (P02768 25-609): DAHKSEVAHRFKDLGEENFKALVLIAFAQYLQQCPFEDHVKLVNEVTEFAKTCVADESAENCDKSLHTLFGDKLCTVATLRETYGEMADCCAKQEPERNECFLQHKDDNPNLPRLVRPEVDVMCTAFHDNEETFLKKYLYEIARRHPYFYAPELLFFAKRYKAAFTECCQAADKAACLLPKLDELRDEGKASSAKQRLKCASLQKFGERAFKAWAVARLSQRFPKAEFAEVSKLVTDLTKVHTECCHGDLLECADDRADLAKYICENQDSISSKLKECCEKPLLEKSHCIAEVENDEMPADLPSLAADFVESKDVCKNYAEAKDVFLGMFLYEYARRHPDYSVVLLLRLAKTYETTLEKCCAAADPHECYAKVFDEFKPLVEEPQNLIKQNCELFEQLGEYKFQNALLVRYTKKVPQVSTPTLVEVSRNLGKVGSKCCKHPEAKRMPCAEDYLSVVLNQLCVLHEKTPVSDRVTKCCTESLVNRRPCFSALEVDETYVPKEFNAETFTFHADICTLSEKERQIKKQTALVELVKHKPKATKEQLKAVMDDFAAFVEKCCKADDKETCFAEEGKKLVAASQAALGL

CN(C)c1cccc2c(S(=O)(=O)NCC(=O)O)cccc12 [dansylglycine]
fluorescent probe displaced from HSA by GdLx: Determined by displacement of fluorescent dansylglycine from HSA upon addition of GdLx
